Data on 3 compounds can be found in patent US10857247B2, “Compounds and compositions for the detection and treatment of Alzheimer's disease and related disorders” (The General Hospital Corporation, priority 2008, dated 2020).

The conditions of data set [1]: cited from earlier work.
The next data set relates to brain amyloid deposits. The settings on record: APP23 transgenic mice, 180 min after iv injection; cited from earlier work.
The conditions of data set [2]: normal mice, iv, cited from earlier work.
The nature of data set [3]: Biodistribution of [18F]fluoro-RS 86 in rats. It counts as in vivo. As for the experimental part: As described above, 2-(2-methanesulfonylethyl)-8-methyl-2,8-diazaspiro[4,5]decane-1,3-dione was prepared in five steps. The RS-86 mesylate (2 mg) in acetonitrile (0.1 mL) was added to a sealed vial containing dried K^18F/kryptofix and heated at 120° C. for 10 min. The mixture was diluted with water (0.2 mL) and purified by HPLC (C-18 column 250×10 mm, flow 6 mL/min, PBS/acetonitrile (95:5). The fraction containing [^18F]fluoro-RS 86 was evaporated to dryness and the activity dissolved in PBS before filtering. Biodistribution was performed in rats at 5, 30 and 60 min.

Read-outs that look alike come from different tables or passages of the source.

Turning to `CCN1C(=O)CC2(CCN([11CH3])CC2)C1=O` [[^11C]RS-86], the Brain uptake in data set [1] (comparison value for the C-11 labeled analog) is listed as 1%. For the same compound, in data set [1] (rats, biodistribution as a function of time), the Initial brain uptake result is “about 1.1%”.

With `CNc1ccc(C=Cc2nc3ccc(OCCF)cc3o2)cc1` [BF-168, 6-(2-fluoroethoxy)-2-[2-(4-methylaminophenyl)ethenyl]-benzoxazole], the “Labeling in autoradiograms of brain sections” value in the data set on brain amyloid deposits is listed as “selective labeling of brain amyloid deposits with little non-specific binding”. Also, the Initial brain uptake in data set [2] (at 2 min after injection) was 3.9 % injected dose/gm. Moreover, the “Clearance t1/2” value in data set [2] (clearance from brain) was 24.7 min.

In data set [3] (5 min), `O=C1CC2(CCNCC2)C(=O)N1CC[18F]` [[^18F]fluoro-RS 86, [F-18]-N-2-fluoroethyl-2,8-diazaspiro[4,5]decane-1,3-dione] showed a Brain uptake of 0.27. Also, the Brain uptake in data set [3] (30 min) stood at 0.54. Also, the Brain uptake in data set [3] (60 min) came to 0.48. Further, in data set [3] (at 30 min), the Blood uptake is recorded as 0.3%, the Liver uptake was found to be 0.64%, the Stomach uptake was 0.90% and the “Uptake in the kidneys (greatest uptake)” value amounted to 2.5%. Moreover, the “Defluorination (uptake in bone)” value in data set [3] (bone at 30 min) stood at 0.42%. This compound also displayed a Brain uptake in data set [3] (restated in comparison with [11C]RS-86) of 0.54%.
